In patent US10774094B2, “Crystal forms and salt forms of 7h-pyrrolo[2,3-d]pyrimidine compounds and preparation method thereof” (Wuxi Fortune Pharmaceutical Co., Ltd, priority 2016, dated 2020):

Assay: Technical effect statement on properties of the crystal forms (no method given)
Assay type: physicochemical

CN(c1ncnc2[nH]ccc12)[C@@H]1CCn2cc(C#N)nc2C1.O=C(O)C(F)(F)F [crystal form F of the compound 3]
hygroscopicity (in words): low hygroscopicity
stability (in words): stable properties
water solubility (in words): excellent water solubility
